Results reported in the supplement of paper PMC10307832.

What was measured:
Experiment in all cases: relative viability (nuclei count vs DMSO), 5 days (fraction); higher = more cells survive
A-427 = tested on: A-427
Summary of the method: (§1)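 Cells from lung cancer lines were seeded into 1536-well plates and, one day later, dosed by pin tool. Treatments were either a single drug or a fixed dose of an anchor drug with five library-drug doses (not always all listed) in √10 steps. After 5 days, nuclei were stained in a one-step fixation (final 0.05% Triton X-100, 1% formaldehyde, 1 ug/ml Hoechst) and counted on 4× images, and relative viability is the treated-to-vehicle nuclei ratio, as the median of duplicate plates.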

ABC-1 = tested on: ABC-1
Summary of the method: as §1

EMC-BAC-2 = tested on: EMC-BAC-2
Summary of the method: as §1

HARA = tested on: HARA
Summary of the method: as §1

HOP-62 = tested on: HOP-62
Summary of the method: as §1

LK-2 = tested on: LK-2
Summary of the method: as §1

LXF-289 = tested on: LXF-289
Summary of the method: as §1

NCI-H1792 = tested on: NCI-H1792
Summary of the method: as §1

NCI-H1944 = tested on: NCI-H1944
Summary of the method: as §1

NCI-H1993 = tested on: NCI-H1993
Summary of the method: as §1

NCI-H2009 = tested on: NCI-H2009
Summary of the method: as §1

NCI-H2170 = tested on: NCI-H2170
Summary of the method: as §1

NCI-H2228 = tested on: NCI-H2228
Summary of the method: as §1

NCI-H3122 = tested on: NCI-H3122
Summary of the method: as §1

NCI-H322M = tested on: NCI-H322M
Summary of the method: as §1

NCI-H522 = tested on: NCI-H522
Summary of the method: as §1

NCI-H596 = tested on: NCI-H596
Summary of the method: as §1

NCI-H727 = tested on: NCI-H727
Summary of the method: as §1

PC-3 [JPC-3] = tested on: PC-3 [JPC-3]
Summary of the method: as §1

SK-MES-1 = tested on: SK-MES-1
Summary of the method: as §1

SW 1573 = tested on: SW 1573
Summary of the method: as §1

SW 900 = tested on: SW 900
Summary of the method: as §1

Q: How did the relative viability (A-427; first compound 0.01 µM) turn out when `CCN(CC)CCCCNc1ncc2cc(-c3cc(OC)cc(OC)c3)c(NC(=O)NC(C)(C)C)nc2n1` + COc1cccc2cc(-c3nc([C@H]4CC[C@H](C(=O)O)CC4)n4ncnc(N)c34)[nH]c12 [OSI-027] (partner 0.5 µM) was run?
A: 0.457

Q: What about the relative viability (A-427; first compound 0.03162 µM) of the same molecule?
A: 0.435

Q: What about the relative viability (A-427; first compound 0.1 µM) of the same molecule?
A: 0.427

Q: What about the relative viability (A-427; first compound 0.3162 µM) of the same molecule?
A: 0.364

Q: And the relative viability (A-427; first compound 1 µM)?
A: 0.298

Q: What about the relative viability (ABC-1; first compound 0.01 µM) of the same molecule?
A: 0.433

Q: And the relative viability (ABC-1; first compound 0.03162 µM)?
A: 0.389

Q: And the relative viability (ABC-1; first compound 0.1 µM)?
A: 0.55

Q: What about the relative viability (ABC-1; first compound 0.3162 µM) of the same molecule?
A: 0.499

Q: What about the relative viability (ABC-1; first compound 1 µM) of the same molecule?
A: 0.402

Q: What about the relative viability (EMC-BAC-2; first compound 0.01 µM) of the same molecule?
A: 0.38

Q: What about the relative viability (EMC-BAC-2; first compound 0.03162 µM) of the same molecule?
A: 0.399

Q: What about the relative viability (EMC-BAC-2; first compound 0.1 µM) of the same molecule?
A: 0.398

Q: And the relative viability (EMC-BAC-2; first compound 0.3162 µM)?
A: 0.471

Q: And the relative viability (EMC-BAC-2; first compound 1 µM)?
A: 0.358

Q: And the relative viability (HARA; first compound 0.01 µM)?
A: 0.522

Q: What about the relative viability (HARA; first compound 0.03162 µM) of the same molecule?
A: 0.647

Q: And the relative viability (HARA; first compound 0.1 µM)?
A: 0.429

Q: What about the relative viability (HARA; first compound 0.3162 µM) of the same molecule?
A: 0.697

Q: And the relative viability (HARA; first compound 1 µM)?
A: 0.446

Q: And the relative viability (HOP-62; first compound 0.01 µM)?
A: 0.89

Q: What about the relative viability (HOP-62; first compound 0.03162 µM) of the same molecule?
A: 0.873

Q: What about the relative viability (HOP-62; first compound 0.1 µM) of the same molecule?
A: 1.12

Q: And the relative viability (HOP-62; first compound 0.3162 µM)?
A: 1.11

Q: What about the relative viability (HOP-62; first compound 1 µM) of the same molecule?
A: 0.771

Q: And the relative viability (LK-2; first compound 0.01 µM)?
A: 0.193

Q: And the relative viability (LK-2; first compound 0.03162 µM)?
A: 0.192

Q: What about the relative viability (LK-2; first compound 0.1 µM) of the same molecule?
A: 0.163

Q: What about the relative viability (LK-2; first compound 0.3162 µM) of the same molecule?
A: 0.165

Q: And the relative viability (LK-2; first compound 1 µM)?
A: 0.196

Q: What about the relative viability (LXF-289; first compound 0.01 µM) of the same molecule?
A: 0.825

Q: What about the relative viability (LXF-289; first compound 0.03162 µM) of the same molecule?
A: 0.823

Q: What about the relative viability (LXF-289; first compound 0.1 µM) of the same molecule?
A: 0.973

Q: And the relative viability (LXF-289; first compound 0.3162 µM)?
A: 0.812

Q: And the relative viability (LXF-289; first compound 1 µM)?
A: 0.715

Q: And the relative viability (NCI-H1792; first compound 0.01 µM)?
A: 0.602

Q: What about the relative viability (NCI-H1792; first compound 0.03162 µM) of the same molecule?
A: 0.783

Q: And the relative viability (NCI-H1792; first compound 0.1 µM)?
A: 0.706

Q: And the relative viability (NCI-H1792; first compound 0.3162 µM)?
A: 0.723

Q: And the relative viability (NCI-H1792; first compound 1 µM)?
A: 0.523

Q: What about the relative viability (NCI-H1944; first compound 0.01 µM) of the same molecule?
A: 0.417

Q: And the relative viability (NCI-H1944; first compound 0.03162 µM)?
A: 0.449

Q: And the relative viability (NCI-H1944; first compound 0.1 µM)?
A: 0.437

Q: What about the relative viability (NCI-H1944; first compound 0.3162 µM) of the same molecule?
A: 0.406

Q: What about the relative viability (NCI-H1944; first compound 1 µM) of the same molecule?
A: 0.351

Q: What about the relative viability (NCI-H1993; first compound 0.01 µM) of the same molecule?
A: 0.259

Q: And the relative viability (NCI-H1993; first compound 0.03162 µM)?
A: 0.559

Q: What about the relative viability (NCI-H1993; first compound 0.1 µM) of the same molecule?
A: 0.532

Q: And the relative viability (NCI-H1993; first compound 0.3162 µM)?
A: 0.604

Q: And the relative viability (NCI-H1993; first compound 1 µM)?
A: 0.535

Q: And the relative viability (NCI-H2009; first compound 0.01 µM)?
A: 0.678

Q: And the relative viability (NCI-H2009; first compound 0.03162 µM)?
A: 0.669

Q: And the relative viability (NCI-H2009; first compound 0.1 µM)?
A: 0.642

Q: And the relative viability (NCI-H2009; first compound 0.3162 µM)?
A: 0.675

Q: And the relative viability (NCI-H2009; first compound 1 µM)?
A: 0.604

Q: What about the relative viability (NCI-H2170; first compound 0.01 µM) of the same molecule?
A: 0.768

Q: And the relative viability (NCI-H2170; first compound 0.03162 µM)?
A: 0.67

Q: And the relative viability (NCI-H2170; first compound 0.1 µM)?
A: 0.71

Q: What about the relative viability (NCI-H2170; first compound 0.3162 µM) of the same molecule?
A: 0.79

Q: What about the relative viability (NCI-H2170; first compound 1 µM) of the same molecule?
A: 0.75

Q: And the relative viability (NCI-H2228; first compound 0.01 µM)?
A: 0.599

Q: And the relative viability (NCI-H2228; first compound 0.03162 µM)?
A: 0.505

Q: And the relative viability (NCI-H2228; first compound 0.1 µM)?
A: 0.582

Q: What about the relative viability (NCI-H2228; first compound 0.3162 µM) of the same molecule?
A: 0.63

Q: What about the relative viability (NCI-H2228; first compound 1 µM) of the same molecule?
A: 0.363

Q: And the relative viability (NCI-H3122; first compound 0.01 µM)?
A: 1.06

Q: What about the relative viability (NCI-H3122; first compound 0.03162 µM) of the same molecule?
A: 1.02

Q: And the relative viability (NCI-H3122; first compound 0.1 µM)?
A: 1.15

Q: What about the relative viability (NCI-H3122; first compound 0.3162 µM) of the same molecule?
A: 1.3

Q: And the relative viability (NCI-H3122; first compound 1 µM)?
A: 0.922

Q: What about the relative viability (NCI-H322M; first compound 0.01 µM) of the same molecule?
A: 0.481

Q: And the relative viability (NCI-H322M; first compound 0.03162 µM)?
A: 0.525

Q: And the relative viability (NCI-H322M; first compound 0.1 µM)?
A: 0.531

Q: What about the relative viability (NCI-H322M; first compound 0.3162 µM) of the same molecule?
A: 0.594

Q: What about the relative viability (NCI-H322M; first compound 1 µM) of the same molecule?
A: 0.552

Q: What about the relative viability (NCI-H522; first compound 0.01 µM) of the same molecule?
A: 0.639

Q: And the relative viability (NCI-H522; first compound 0.03162 µM)?
A: 0.625

Q: And the relative viability (NCI-H522; first compound 0.1 µM)?
A: 0.676

Q: What about the relative viability (NCI-H522; first compound 0.3162 µM) of the same molecule?
A: 0.674

Q: What about the relative viability (NCI-H522; first compound 1 µM) of the same molecule?
A: 0.698

Q: What about the relative viability (NCI-H596; first compound 0.01 µM) of the same molecule?
A: 0.63

Q: What about the relative viability (NCI-H596; first compound 0.03162 µM) of the same molecule?
A: 0.74

Q: And the relative viability (NCI-H596; first compound 0.1 µM)?
A: 0.758

Q: What about the relative viability (NCI-H596; first compound 0.3162 µM) of the same molecule?
A: 0.709

Q: What about the relative viability (NCI-H596; first compound 1 µM) of the same molecule?
A: 0.528

Q: And the relative viability (NCI-H727; first compound 0.01 µM)?
A: 0.673

Q: And the relative viability (NCI-H727; first compound 0.03162 µM)?
A: 0.591

Q: And the relative viability (NCI-H727; first compound 0.1 µM)?
A: 0.623

Q: And the relative viability (NCI-H727; first compound 0.3162 µM)?
A: 0.842

Q: And the relative viability (NCI-H727; first compound 1 µM)?
A: 0.498

Q: And the relative viability (PC-3 [JPC-3]; first compound 0.01 µM)?
A: 0.753

Q: What about the relative viability (PC-3 [JPC-3]; first compound 0.03162 µM) of the same molecule?
A: 0.796

Q: What about the relative viability (PC-3 [JPC-3]; first compound 0.1 µM) of the same molecule?
A: 0.782

Q: And the relative viability (PC-3 [JPC-3]; first compound 0.3162 µM)?
A: 1.02

Q: What about the relative viability (PC-3 [JPC-3]; first compound 1 µM) of the same molecule?
A: 0.585

Q: And the relative viability (SK-MES-1; first compound 0.01 µM)?
A: 0.627

Q: And the relative viability (SK-MES-1; first compound 0.03162 µM)?
A: 0.654

Q: And the relative viability (SK-MES-1; first compound 0.1 µM)?
A: 0.58

Q: And the relative viability (SK-MES-1; first compound 0.3162 µM)?
A: 0.81

Q: What about the relative viability (SK-MES-1; first compound 1 µM) of the same molecule?
A: 0.521

Q: And the relative viability (SW 1573; first compound 0.01 µM)?
A: 0.578

Q: And the relative viability (SW 1573; first compound 0.03162 µM)?
A: 0.693

Q: And the relative viability (SW 1573; first compound 0.1 µM)?
A: 0.839

Q: And the relative viability (SW 1573; first compound 0.3162 µM)?
A: 0.691

Q: And the relative viability (SW 1573; first compound 1 µM)?
A: 0.629

Q: And the relative viability (SW 900; first compound 0.01 µM)?
A: 0.657

Q: What about the relative viability (SW 900; first compound 0.03162 µM) of the same molecule?
A: 0.592

Q: And the relative viability (SW 900; first compound 0.3162 µM)?
A: 0.634

Q: What about the relative viability (SW 900; first compound 1 µM) of the same molecule?
A: 0.402
